According to paper PMC7311950, “Potent Tetrahydroquinolone Eliminates Apicomplexan Parasites” (Frontiers in Cellular and Infection Microbiology, 2020):

Experiments:
[1] = test system: cytochrome P450 (CYP 450), 4 of 5 isoforms tested; assay: CYP450 inhibition; type: in vitro ADME; settings: human; 4/5 isoforms
[2] = Caco-2 permeability assay; type: in vitro ADME; settings: human, A-B, read-out: Caco-2 permeability PappA-B
[3] = test system: T. gondii RH-YFP tachyzoites; assay: Synergy studies with RH strain YFP tachyzoites; type: cell-based, Toxoplasma gondii
Protocol: Atovaquone and pyrimethamine were used to test whether they are synergistic with JAG21. Serial dilutions of the combination of JAG21 and either atovaquone or pyrimethamine were used in an in vitro challenge assay as described above. The EC50 of each compound and the combination of two compounds were determined. The effect of the combination of drugs was calculated with the following formula:C= [A]c/[A]a+[B]c/[B]a. If C is lower than 1, the two compounds tested have synergistic effect; if C is >1, the two compounds tested have antagonist effect and if C is 1 they are additive.

With `Cc1[nH]c2c(c(=O)c1-c1ccc(Oc3ccc(OC(F)(F)F)cc3)cc1)CCCC2` [JAG21, 2-Methyl-3-(4-(4-(Trifluoromethoxy)Phenoxy)Phenyl)-5,6,7,8-Tetrahydroquinolin-4-One] the IC50 [1] was > 10 µM, the Papp [2] was > 10 ×10⁻⁶ cm/s and the “effect of combination with pyrimethamine” value ([3]; data not shown) was “no antagonism was observed”. For the same compound, the “effect of combination with atovaquone” value ([3]; isobologram) was “synergy”.
